Patent US20110206650A1, “Probiotic Formulations” (BRACCO IMAGING S.P.A., priority 2008, published 2011)

How the values were obtained:
[1] = acute oral semilethal dose (LD50) in mice; conditions: mouse, in vivo
From the text: Thus, DTPA is a safe oral drug, representing a preferred iron chelator for the compositions of the present invention.
It is therefore a further preferred iron chelator for the compositions of the invention.

[2] = test system: Staphylococcus epidermidis; conditions: Ref. 22; cited from earlier work
[3] = in vivo; cited from earlier work
mice = conditions: cited from earlier work
[4] = test system: Corynebacterium xerosis ATCC 7711; conditions: Ref. 23; cited from earlier work

| Compound | inhibition of growth of Staphylococcus epidermidis [2] | also measured |
| --- | --- | --- |
| O=C(O)CN(CCN(CC(=O)O)CC(=O)O)CCN(CC(=O)O)C(COCc1ccccc1)C(=O)O (centres unmarked) [BOPTA, 4-carboxy-5,8,11-tris(carboxymethyl)-1-phenyl-2-oxa-5,8,11-triazatridecan-13-oic acid] |  | LD50 [1]: 8400 µmol/kg |
| O=C(O)CN(CCN(CCN(CC(=O)O)CC(=O)O)CC(=O)O)CCN(CC(=O)O)CC(=O)O [TTHA, triethylene-tetraaminehexaacetic acid] | inhibit the growth |  |
| O=C(O)CN(CC(=O)O)[C@@H]1CCCC[C@H]1N(CC(=O)O)CC(=O)O (relative stereo) [CDTA, trans-1,2-diaminocyclohexane-N,N,N′,N′-tetraacetic acid] | inhibit the growth |  |
| O=C([O-])CN(CCN(CC(=O)[O-])CC(=O)[O-])CCN(CC(=O)[O-])CC(=O)[O-].[H+].[H+].[Na+].[Na+].[Na+] [trisodium pentetate] |  | safety of oral dose [3]: proven to be safe |
| O=C(O)CN(CCN(CC(=O)O)CC(=O)O)CCN(CC(=O)O)CC(=O)O [DTPA, diethylenetriaminepentaacetic acid] | inhibit the growth | acute oral semilethal dose (LD50) (mice): 3500 mg/kg |
| O=C(O)CN(CCN(CC(=O)O)CC(=O)O)CC(=O)O [EDTA, ethylenediaminetetraacetic acid] | inhibit the growth |  |
| O=C(O)C[C@H](NCCN[C@@H](CC(=O)O)C(=O)O)C(=O)O [R,S-EDDS, R,S-ethylenediaminedisuccinic acid] |  | inhibition of growth of Corynebacterium xerosis ATCC 7711 [4]: inhibit growth |
